The test system of series [1] is H. pylori SS1. Nature of the series: H. pylori killing kinetics at various pHs (CFU counting, 1 h). Type of series: cell-based, Helicobacter pylori. Here is the method: H. pylori killing kinetics at various pHs. The killing kinetics of polypeptides were measured against H. pylori by counting the colony forming units (CFU) of alive bacteria with agar plating. The polypeptides at various concentrations were dissolved in the Tris-HC buffer at various pHs (pH 7.4, 4.0, 3.0). H. pylori were then collected and dispersed in the BB medium supplied with fresh urea (10 mM) and 10% FBS at different pHs (pH 7.4, 4.0, 3.0). The optical density at 600 nm of the bacteria were fixed at 0.1. The bacteria were then incubated with the polypeptides solution at corresponding pH in the incubator supplied with 10% CO2 at 37° C. Samples were taken for a series of ten-fold dilutions, and plated out in BB agar plates with 10% FBS and vancomycin (pH 7.4) after 1 h incubation. The plates were incubated for 72 h in the incubator and the bacteria were counted for CFU. Bacteria incubated with Tris-HCl buffer only at corresponding pH were served as 100% survival. Survival rate (%)=CFU of bacteria treated with polypeptides/CFU of bacteria treated with buffer×100%. The killing kinetics of antibiotics (OAC, omeprazole, amoxicillin, clarithromycin) against H. pylori were determined with a similar procedure. The antibiotics at various concentrations were dissolved in the Tris-HCl buffer at pH 7.4, or 3.0, and were then incubated with H. pylori in BB medium supplied with fresh urea (10 mM) and 10% FBS at corresponding pH in the incubator. After 1 h incubation, the bacteria were collected by centrifuge at 10,000 rcf for 5 min and washed with fresh BB medium. Samples were then taken for a series of ten-fold dilutions, and plated out in BB agar plates with 10% FBS and vancomycin. The plates were incubated for 72 h in the incubator and the bacteria were counted for CFU.

The subject of series [2] is H. pylori SS1. Nature of the series: MIC of antibiotics against SS1. It is filed as cell-based. To be noted: Helicobacter pylori.
Series [3] has as its system clinical isolated H. pylori stains J99, J99A-7, J99A-9, J99A-11, J99C-8, J99D-1. Nature of the series: Growth (OD600) of clinical isolated H. pylori strains with antibiotics. It is filed as cell-based, Helicobacter pylori. To be noted: pH 7.4, 10% CO2, 37° C. The method, then: FIG. 8. (A) The survival rate of H. pylori after incubation with amoxicillin (273.7 μM) and clarithromycin (133.7 μM) under pH 7.4 or 3.0 for 1 h. […] Concentrations of omeprazole, amoxicillin, and clarithromycin in OAC1 are 20.0 μM, 6.8 μM, and 1.9 μM, respectively; in OAC2 are 40.0 μM, 13.6 μM, and 3.8 μM, respectively; in OAC3 are 80.0 μM, 27.2 μM, and 7.6 μM, respectively. (C) The antibacterial activity of omeprazole (O) and a combination of amoxicillin and clarithromycin (AC) against SS1 at pH 3.0. O1, O2, O3 represents the concentration of omeprazole at 20.0 μM, 40.0 μM, and 80.0 μM, respectively. AC1, AC2, AC3 represents the concentration of amoxicillin and clarithromycin at 6.8 μM and 1.9 μM, 13.6 μM and 3.8 μM, 27.2 μM and 7.6 μM, respectively. The antibiotics were incubated with H. pylori strains for 1 h. The antibacterial activity of amoxicillin (D) and clarithromycin (E) against clinical isolated H. pylori stains, J99, J99A-7, J99A-9, J99A-11, J99C-8, J99D-1. The bacteria were incubated with antibiotics under pH 7.4 in the 10% CO2 incubator (37° C.), and the optical density at 600 nm (OD600) of bacteria were analyzed to determine the growth of bacteria. […] (G) The antibacterial activity of omeprazole (0) and a combination of amoxicillin and clarithromycin (AC) against J99D-1 under pH 3.0.

The subject of series [4] is H. pylori SS1. Nature of the series: Anti-H. pylori efficacy in vivo (infected C57BL/6J mice). More on the design: species or system Helicobacter pylori. The conditions noted are these: oral gavage once daily for 3 d, 2.6 μmol/kg. The method, then:
Anti-H. pylori efficacy in vivo. […] For triple therapy, mice were first administered omeprazole (a proton pump inhibitor) through oral gavage at a dose of 400 μmol/kg, followed by a lag time of 30 min before administration of amoxicillin (68.0 μmol/kg) and clarithromycin (19.1 μmol/kg). PL2 and PDL2 in 5% (vol/vol) DMSO (both at 2.6 μmol/kg) were administered through oral gavage once daily for a consecutive 3 d. Water solution with 5% DMSO was served as negative control group. Forty-eight hours after the last administration, mice were killed and the stomach was removed from the abdominal cavity. The stomach was cut along the greater curvature, and the gastric content was removed and rinsed with PBS. The stomach sections were used for assessment of bacterial colonization. For bacterial colonization, a gastric tissue section was suspended in 1 mL PBS and homogenized for H. pylori recovery. The homogenate was serially diluted and spotted onto Columbia agar plate containing vancomycin (20 μg/mL), amphotericin (2 μg/mL), bacitracin (30 μg/mL) and nalidixic acid (10 μg/mL). The plates were then incubated at 37° C. under microaerobic conditions for 5 d, and bacterial colonies were enumerated and adjusted for dilutions.

A short description of series [5]: Liposome dye leakage assay (ANTS/DPX efflux). Here is the method: Liposome dye leakage assay. ANTS (12.5 mM) and DPX (45 mM) were dissolved in Tris buffer (pH=7.4). To a clean round-bottom flask, appropriate volumes of lipid stocks were added to make up 1 mL of CHCl3 (3:1 POPE (1-palmitoyl-2-oleoyl-sn-glycero-3-phosphoethanolamine)/POPG (1-palmitoyl-2-oleoyl-sn-glycero-3-phospho-(1′-rac-glycerol) (sodium salt)) vesicles, POPE (130 μL, 25 mg/mL CHCl3) and POPG (115 μL, 10 mg/mL CHCl3) were used). The solvent was removed by a stream of nitrogen gas to obtain a thin lipid film, which was then hydrated by 1 mL of ANTS/DPX solution. The mixture was left to hydrate for 1 h, after which it was subjected to 10 freeze-thaw cycles (using dry ice/acetone to freeze and warm water to thaw). The suspension was extruded 20 times through a polycarbonate membrane with 400 nm pore diameter. The excess dye was removed using Sephadex G-50 column as the eluent. The dye-filled vesicle fractions were diluted 200 times with Tris buffer. This suspension (90 μL) was subsequently mixed with polypeptide stock solutions (10 μL) at various pH (pH 7.4 or 4.0) on a 96-well black microplate (Greiner, flat bottom). Tris buffer (10 μL, pH 7.4 or 4.0) and Triton-X (0.1% v/v, 10 μL, pH 7.4 or 4.0) were employed as the negative and positive controls at corresponding pH, respectively. After 30 min, the fluorescence intensity in each well was recorded using the microplate reader with excitation and emission wavelengths of 380 and 520 nm, respectively. The percentage of leaked […] dye in each well was determined as follows: leakage (%)=[(F−F0)/(FTX−F0)]×100%, where F is the fluorescence intensity recorded in the well, F0 is the intensity in the negative control well, and FTX is the intensity in the positive control well.

For series [6], the system named is H. pylori SS1. Put plainly: SEM analysis of bacterial morphology. It is filed as cell-based, Helicobacter pylori. To be noted: 30 min. The method, then:
SEM analysis. SS1 bacterial cells grown in BB with the supplement of 10% FBS under pH 7.4 or 4.0 with or without polypeptides (2.2 μM) treatment were performed using a similar protocol as killing kinetics measurements but with a 30 min incubation time. All the samples were collected into a microfuge tube and pelleted at 4000 rpm for 5 min, and then washed twice with phosphate-buffered saline. Subsequently, bacteria were fixed with paraformaldehyde solution (4%) for 1 h before proceeding, followed by washing with DI water. Dehydration was performed with a series of graded ethanol solution (10%, 25%, 50%, 75%, 95%, and 100%). The dehydrated samples were dried under vacuum overnight before being mounted on carbon tape and coated with gold-platinum for imaging using a Hitachi S-4700 High Solution SEM (Japan).

Series [7] can be described thus: Circular dichroism (CD) secondary structure of polypeptides at different pH. It is filed as physicochemical. To be noted: pH 7.4 or 3.0. The method, then: The secondary structure of the polypeptides at different pH value was then investigated by circular dichroism (CD). […] Distortion of helical conformation was noted when the pH was adjusted back to neutral (FIG. 1C).
The MALLS detector was calibrated using pure toluene and can be used for the determination of the absolute molecular weights (MWs). The MWs of polymers were determined based on the dn/dc value of each polymer sample calculated offline by using the internal calibration system processed by the ASTRA V software (version 5.1.7.3, Wyatt Technology, Santa Barbara, Calif., USA). Circular dichroism (CD) measurements were carried out on a JASCO J-815 CD spectrometer. The polymer samples were prepared at concentrations of 4.4 μM. The solution was placed in a quartz cell with a path length of 0.10 cm. The zeta-potential of polypeptides was evaluated by Malvern Zetasizer. Infrared spectra were recorded on a Perkin Elmer 100 serial FTIR spectrophotometer calibrated with polystyrene film. Lyophilization was performed on a FreeZonelyophilizer (Labconco, Kansas City, Mo., USA). UV light was generated from an OmiCure S1000 UV lamp (EXFO, Mississauga, Canada).
For orientation: Circular dichroism is the unequal absorption of left and right circularly polarised light.

The results in this text go back to US11225507B2, “Conformation switchable antimicrobial peptides and methods of using the same” (priority 2017, dated 2022).

For `CC1(C)S[C@@H]2[C@H](NC(=O)[C@H](N)c3ccc(O)cc3)C(=O)N2[C@H]1C(=O)O` [amoxicillin, reference compound], the “bactericidal activity against SS1” value with H. pylori SS1 [1] (pH 3.0, 1 h incubation) is recorded as “no bactericidal activity”. The same molecule came in with a bacteria killed in the series with H. pylori SS1 [1] (pH 7.4, 1 h incubation, 273.7 μM) of around 40%. Further, in the series with H. pylori SS1 [2], the MIC is 0.13 µM.
For the molecule `CC[C@H]1OC(=O)[C@H](C)[C@@H](O[C@H]2C[C@@](C)(OC)[C@@H](O)[C@H](C)O2)[C@H](C)[C@@H](O[C@@H]2O[C@H](C)C[C@H](N(C)C)[C@H]2O)[C@](C)(OC)C[C@@H](C)C(=O)[C@H](C)[C@@H](O)[C@]1(C)O` [clarithromycin, reference compound], the “bactericidal activity against SS1” value in the series on H. pylori SS1 [1] (pH 3.0, 1 h incubation) is on record as “no bactericidal activity”. This molecule gave a bacteria killed in the series on H. pylori SS1 [1] (pH 7.4, 1 h incubation, 133.7 μM) of around 60%. Also, in the series on H. pylori SS1 [2], the MIC is 0.07 µM. The “susceptibility of J99A-7, J99A-11, J99C-8 and J99D-1 (growth, OD600)” value in series [3] is “resistant”.
Consider (PDLGA)20-r-(PHDLG-MHH)25 [PDL2], for which the “decrease of bacterial burden in the stomach as compared with the control group” value in the series on H. pylori SS1 [4] is on record as “no significant decrease of bacterial burden”. Also, the “dye leakage from anionic liposomes” value in series [5] (pH 4.0) and in series [5] (pH 7.4) was “unappreciable dye leakage” in each case. Also, the “bacterial membrane/morphology by SEM” value in the series with H. pylori SS1 [6] (pH 4.0, 2.2 μM) was “did not affect the morphology of bacteria”; with H. pylori SS1 [6] (pH 7.4, 2.2 μM), “did not affect the morphology of bacteria”. In addition, the “bactericidal activity against SS1” value in the series with H. pylori SS1 [1] (pH 3.0, 1 h incubation) is on record as “unappreciable bactericidal activity”; with H. pylori SS1 [1] (pH 7.4, 1 h incubation), “unappreciable bactericidal activity”. Moreover, the “secondary structure (CD), dependence on pH” value in series [7] was “pH-independent non-helical conformation”.
Consider (PHLG-MHH)20 [PL1], for which the “dye leakage from anionic liposomes” value in series [5] (pH 4.0) and in series [5] (pH 7.4) was “notable dye leakage” in each case. Besides, the “bacterial membrane/morphology by SEM” value with H. pylori SS1 [6] (pH 4.0, 2.2 μM) is “membrane disruption”; with H. pylori SS1 [6] (pH 7.4, 2.2 μM), “membrane disruption”. The “bactericidal activity against SS1” value in the series with H. pylori SS1 [1] (pH 3.0, 1 h incubation) is reported as “killed H. pylori SS1”; with H. pylori SS1 [1] (pH 7.4, 1 h incubation) it was “killed H. pylori SS1”. The “secondary structure (CD), dependence on pH” value in series [7] is “stable helical conformation independent of pH change”.

What is called MIC is the least concentration at which growth counts as inhibited.
